Reference: US20240368120A1 (Terns Pharmaceuticals, Inc., priority 2023, published 2024)
pEC50: −log10 of the molar value.

How the values were obtained:
human GLP-1R receptor = target: T1, human GLP-1R receptor (Homo sapiens, UniProt P43220); assay: GLP-1R low expression cell assay (cAMP TR-FRET, CHO-K1_hGLP-1Rlow_clone10 cells); assay type: cell-based; details: for pEC50: cAMP TR-FRET, 30 min at 25° C.; for Emax: maximum activation relative to control GLP-1 peptide agonist
T1 construct: expressed in transfected cells
Outline: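 CHO-K1 cells stably expressing low surface human GLP-1R (clone10), 1,000 cells/well, exposed to 10-point 3-fold compound dilutions for 30 min at 25 °C. cAMP measured by TR-FRET (Eu-cAMP tracer/ULight-anti-cAMP, 15 min). EC50 from Hill fit of duplicate percent activation relative to a parallel GLP-1 control agonist.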

[1] = Rat pharmacokinetics, oral dosing; assay type: in vivo, Sprague-Dawley rats; details: male, Sprague-Dawley, oral dosing at 3 mg/kg, plasma; for half-life: read-out: Rat T1/2

T1 sequence (P43220 24-463): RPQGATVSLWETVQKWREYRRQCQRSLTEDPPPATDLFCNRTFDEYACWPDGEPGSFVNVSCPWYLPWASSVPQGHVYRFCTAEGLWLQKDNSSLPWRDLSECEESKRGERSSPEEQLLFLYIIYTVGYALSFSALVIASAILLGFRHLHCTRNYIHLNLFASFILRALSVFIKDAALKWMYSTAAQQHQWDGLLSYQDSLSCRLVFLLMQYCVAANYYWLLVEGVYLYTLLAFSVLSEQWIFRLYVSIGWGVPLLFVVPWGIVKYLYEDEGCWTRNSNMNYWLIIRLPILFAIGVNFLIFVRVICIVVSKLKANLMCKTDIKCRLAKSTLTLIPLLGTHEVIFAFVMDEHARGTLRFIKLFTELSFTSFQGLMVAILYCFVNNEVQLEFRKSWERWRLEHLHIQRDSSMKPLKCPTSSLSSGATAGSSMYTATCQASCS

| SMILES | pEC50 (human GLP-1R receptor) | Emax (human GLP-1R receptor) [%] | AUC [1] [ng·h/mL] | Cmax [1] [ng/mL] | half-life [1] [h] | bioavailability [1] [%] |
| --- | --- | --- | --- | --- | --- | --- |
| Cn1c(N(C)[C@H]2CC[C@H](c3cccc(OCc4ccc(C#N)cc4F)n3)CC2)nc2c(OC(F)F)cc(C(=O)O)cc21 [Compound 133, 2-(((1r,4r)-4-(6-((4-Cyano-2-fluorobenzyl)oxy)pyridin-2-yl)cyclohexyl)(methyl)amino)-4-(difluoromethoxy)-1-methyl-1H-benzo[d]imidazole-6-carboxylic acid] | > 8.00 | > 85 | 500 to 2500 | 500 to 1000 | 1.5 to 2.5 | 25 to 50 |
| C[C@]1(c2ccc(Cl)cn2)Oc2cccc(C3CCN(Cc4nc5c(OC6COC6)cc(C(=O)O)cc5n4C[C@@H]4CCO4)CC3)c2O1 [Compound 72, 2-((4-((S)-2-(5-Chloropyridin-2-yl)-2-methylbenzo[d][1,3]dioxol-4-yl)piperidin-1-yl)methyl)-1-(((S)-oxetan-2-yl)methyl)-4-(oxetan-3-yloxy)-1H-benzo[d]imidazole-6-carboxylic acid] | > 8.00 | > 85 | < 500 | < 500 | < 1.5 | < 25 |
| [2H]C([2H])(C)Oc1cc(C(=O)O)cc2c1nc(CN1CCC(c3cccc(OCc4ccc(C#N)cc4F)n3)CC1)n2C [Compound 295, 2-((4-(6-((4-Cyano-2-fluorobenzyl)oxy)pyridin-2-yl)piperidin-1-yl)methyl)-4-(ethoxy-1,1-d2)-1-methyl-1H-benzo[d]imidazole-6-carboxylic acid] | > 8.00 | > 85 | 500 to 2500 | 500 to 1000 | 1.5 to 2.5 | 25 to 50 |
| COc1cc(C(F)(F)F)ccc1COc1cccc(C2CCN(Cc3nc4c(OC(F)F)cc(C(=O)O)cc4n3C)CC2)n1 [Compound 154, 4-(Difluoromethoxy)-2-((4-(6-((2-methoxy-4-(trifluoromethyl)benzyl)oxy)pyridin-2-yl)piperidin-1-yl)methyl)-1-methyl-1H-benzo[d]imidazole-6-carboxylic acid] | > 8.00 | > 85 | – | > 5000 | 1.5 to 2.5 | 50 to 85 |
| COc1cc(C(=O)O)cc2c1nc(Cc1cc(F)c(-c3cccc(OCc4ccc(C#N)cc4F)n3)cc1F)n2C [Compound 304, 2-(4-(6-((4-Cyano-2-fluorobenzyl)oxy)pyridin-2-yl)-2,5-difluorobenzyl)-4-methoxy-1-methyl-1H-benzo[d]imidazole-6-carboxylic acid] | > 8.00 | > 85 | 2500 to 10000 | 2000 to 5000 | 1.5 to 2.5 | 50 to 85 |
| C[C@]1(c2ccc(Cl)cn2)Oc2cccc(C3CCN(Cc4nc5c(OC(F)F)cc(C(=O)O)cc5n4C[C@@H]4CCO4)CC3)c2O1 [Compound 78, 2-((4-((S)-2-(5-Chloropyridin-2-yl)-2-methylbenzo[d][1,3]dioxol-4-yl)piperidin-1-yl)methyl)-4-(difluoromethoxy)-1-(((S)-oxetan-2-yl)methyl)-1H-benzo[d]imidazole-6-carboxylic acid] | > 8.00 | > 85 | < 500 | < 500 | 1.5 to 2.5 | 25 to 50 |
| Cn1c(CN2CCC(c3cccc(OCc4ccc(Cl)cc4F)n3)CC2)nc2c(OC(F)F)cc(C(=O)O)cc21 [Compound 136, 2-((4-(6-((4-Chloro-2-fluorobenzyl)oxy)pyridin-2-yl)piperidin-1-yl)methyl)-4-(difluoromethoxy)-1-methyl-1H-benzo[d]imidazole-6-carboxylic acid] | > 8.00 | > 85 | – | > 5000 | ≥ 2.5 | > 85 |
| C[C@]1(c2ccc(Cl)cn2)Oc2cccc(C3CCN(Cc4nc5c(OCC6COC6)cc(C(=O)O)cc5n4C[C@@H]4CCO4)CC3)c2O1 [Compound 77, 2-((4-((S)-2-(5-chloropyridin-2-yl)-2-methylbenzo[d][1,3]dioxol-4-yl)piperidin-1-yl)methyl)-1-(((S)-oxetan-2-yl)methyl)-4-(oxetan-3-ylmethoxy)-1H-benzo[d]imidazole-6-carboxylic acid] | > 8.00 | > 85 | < 500 | < 500 | – | < 25 |
